The values below come from patent US10774084B2, “Adenine derivatives and their use as UV-photoprotective agents” (UNIVERZITA PALACKEHO V OLOMOUCI, priority 2015, dated 2020).

The subject of experiment [1] is skin fibroblasts BJ and keratinocytes HaCaT. Put plainly: MTT in vitro cytotoxicity test for skin cells. Type of experiment: cell-based. The conditions noted are these: Homo sapiens; 72 hour treatment; table does not say which cell line (BJ, HaCaT). How it is done: MTT assay is a standard test of toxicity based on photometric measurement of the ability of metabolically active cells to reduce MTT (3-(4,5-dimethylthiazol-2-yl)-2,5-diphenyltetrazolium bromide). Using the assay, the effects of 72 hour treatments with several concentrations of the compounds (sixfold dilution, maximal concentration=50 microM) on viability of skin fibroblasts BJ and keratinocytes HaCaT were evaluated. About 5,000 cells were seeded per well of a 96-well plate 24 hours before the treatment. DMSO vehiculum was used as a negative control. After 72 hour treatment, new medium with MTT (Sigma, M2128) was added to a final concentration of 0.5 mg/ml. After 3 hours, medium was removed and resulting formazan in the cells was dissolved in DMSO. The absorbance was measured at 570 nm (640 nm reference wavelength). The IC50 values were calculated from the dose-response curves. 6-furfurylaminopurine riboside was used as positive controls.

Experiment [2] relates to Triticum aestivum cv. Hereward leaf segments. Nature of the experiment: Senescence bioassay on detached wheat leaf segments (chlorophyll retention). The conditions noted are these: for maximum effective concentration: 96 h in the dark; for activity (%) [10^−4 mol · l^−1 BAP = 100%]: at maximum effective concentration. The method, then:
Seeds of winter wheat, Triticum aestivum cv. Hereward, were washed under running water for 24 hours and then sown on vermiculite soaked with Knop's solution. They were placed in the growth chamber at 25° C. with a 16/8 h light period at […]. After 7 days, the first leaf was fully developed and the second leaf had started to grow. A tip section of the first leaf, approximately 35 mm long, was removed from 5 seedlings and trimmed slightly to a combined weight of 100 mg. The basal ends of the five leaf tips were placed in the wells of a microtiter polystyrene plate containing 150 μL of the tested derivative solution each. The entire plate was inserted into a plastic box lined with paper tissues soaked in distilled water to prevent leaf sections from drying out. After 96 h incubation in the dark at 25° C., the leaves were removed and chlorophyll extracted by heating at 80° C. for 10 min in 5 mL of 80% ethanol (v/v). The sample volume was then restored to 5 mL by the addition of 80% ethanol (v/v). The absorbance of the extract was recorded at 665 nm. In addition, chlorophyll extracts from fresh leaves and leaf tips incubated in deionised water were measured. The results are means of five replicates and the entire test was repeated twice. […] The compounds to be tested were dissolved in dimethylsulfoxide (DMSO) and the solution brought up to 10^−3 M with distilled water. […] The activity obtained for 10^−4 M of BAP was postulated as 100%. Kinetin was used as the second standard. Newly prepared compounds generally exceeded the efficiency of standard (BAP) by 10% of its activity (Tab. 5).

Experiment [3] relates to BJ human fibroblast cells. Nature of the experiment: Calcein AM cytotoxicity assay. Type of experiment: cell-based. The conditions noted are these: 72 hrs. An excerpt:
(§1) One of the parameters used as the base for cytotoxic analysis is metabolic activity of viable cells. Microtiter assay, which uses the Calcein AM, is now widely used to quantify cell proliferation and cytotoxicity. The quantity of […] Calcein AM corresponds to the number of viable cells in culture. The cell lines of breast cancer (MCF-7), human erythromleukemia (K562), BJ human fibroblast cells (BJ) and human keratinocyte cell line (HaCaT) were used for routine screening of cytotoxicity of the compounds. The cells were maintened in Nunc/Corning 80 cm^2 plastic bottles and grown in media for cell culture (DMEM containing 5 g/l of glucose, 2 mM of glutamin, 100 U/ml of penicilin, 100 μg/ml of streptomycin, 10% of fetal bovine serum and sodium hydrogencarbonate). Cell suspensions were diluted according to cell types and according to expected final cell density (10^4 of cells per well according to characteristics of cell growth), pippeted 80 μl of cell suspension on 96-well microtiter plates. Innoculates were stabilized by 24 hrs preincubation at 37° C. in CO2. Particular concentrations of tested compounds were added in time zero as 20 μl aliquotto wells of microtiter plates. Usually, the compounds were diluted into six concentrations in four-fold dilution series. In routine testing, the highest well concentration was 166.7 μM, of change dependent on the substance. All drug concentrations were examined in duplicates. The incubation of cells with tested derivatives lasted 72 hrs at 37° C., 100% humidity and in the atmosphere of CO2. At the end of the incubation period, the cells were tested and analysed according to the addition of Calcein AM (Molecular probes) solution and the incubation lasted for next 1 hour. Fluorescence (FD) was measured using Labsystem FIA reader Fluorskan Ascent (Microsystems). The survival of tumor cells (The tumor cell survival-TCS) was counted according to equation: […](FDwell with derivative/FDcontrol well)×100%. The value of GI50, that is equal to the concentration of compound at which 50% of tumour cells are terminated. To evaluate the antitumor activity was tested toxicity of new derivatives on panel of cell lines of different histogenetic and species origin (Tab. 6, G150 concentration given in μM). […] Effective derivatives killed tumor cells in concentrations close to 0.1 to 50. None of the newly prepared compounds only reached the value.

Experiment [4] deals with HaCaT. Put plainly: Calcein AM cytotoxicity assay. It is filed as cell-based. The conditions noted are these: Homo sapiens, 72 hrs.
Source text: as §1

Experiment [5] deals with K562. Nature of the experiment: Calcein AM cytotoxicity assay. Type of experiment: cell-based. The note with it: Homo sapiens, 72 hrs.
Source text: as §1

The test system of experiment [6] is MCF-7. Put plainly: Calcein AM cytotoxicity assay. It is filed as cell-based. The conditions noted are these: Homo sapiens, MCF7, 72 hrs.
Source text: as §1

Bounds are passed on as bounds.

Consider `c1nc(NCC2CCCO2)c2ncn(C3CCCO3)c2n1` (stereo not drawn) [Compound 1, 6-(tetrahydrofuran-2-ylmethylamino)-9-(tetrahydrofuran-2-yl)purine], for which the IC50 (in general, the concentration that inhibits the measured activity by half) in experiment [1] is > 100 µM. Also, in experiment [2], the maximum effective concentration is reported as 10^−4 mol · l^−1. For the same molecule, the “activity (%) [10^−4 mol · l^−1 BAP = 100%]” value (shortened to “activity (%)”) in experiment [2] is listed as 125 ± 9%. Also, the GI50 in experiment [3], in experiment [4], in experiment [5] and in experiment [6] was > 100 µM in each case.

Consider `c1csc(CNc2ncnc3c2ncn3C2CCCO2)c1` (stereo not drawn) [Compound 9, 6-(thiophen-2-ylmethylamino)-9-(tetrahydrofuran-2-yl)purine], for which the IC50 in experiment [1] was > 100 µM. Besides, the maximum effective concentration in experiment [2] is 10^−4 mol · l^−1. In addition, the “activity (%)” value in experiment [2] amounted to 112 ± 5%. Moreover, the GI50 in experiment [3], in experiment [4], in experiment [5] and in experiment [6] was > 100 µM in each case.

With `Clc1nc(NCc2ccco2)c2ncn(C3CCCO3)c2n1` (stereo not drawn) [Compound 15, 2-chloro-6-furfurylamino-9-(tetrahydrofuran-2-yl)purine], the IC50 in experiment [1] was > 100 µM.

On to `Clc1nc(NCC2CCCO2)c2ncn(C3CCCO3)c2n1` (stereo not drawn) [Compound 20, 2-chloro-6-(tetrahydrofuran-2-ylmethylamino)-9-(tetrahydrofuran-2-yl)purine], for which the maximum effective concentration in experiment [2] is reported as 10^−4 mol · l^−1. Moreover, the “activity (%)” value in experiment [2] turned out to be 127 ± 5%. The GI50 in experiment [3], in experiment [4], in experiment [5] and in experiment [6] was > 100 µM throughout.
